Data published in article PMC7498065, “Isolation of antigen-specific, disulphide-rich knob domain peptides from bovine antibodies” (PLoS Biology, 2020).
“Also recorded” adds a separate entry of the source. Where no end group is shown, it is not given here.

Target: Complement component C5 (Homo sapiens, UniProt P01031)
Experiment: Biacore SPR single-cycle kinetics of isolated knob domain peptides binding to C5
Protocol: For knob domain peptides, flow cells were activated using a standard immobilisation protocol: EDC/NHS was mixed at 1:1 ratio (flow rate, 10 μL/min; contact time, 30 s). C5, at 1 μg/mL in pH 4.5 sodium-acetate buffer, was immobilized on flow cell 2 only (flow rate, 10 μL/min; contact time, 420 s). Finally, ethanolamine was applied to both flow cells (flow rate, 10 μL/min; contact time, 420 s). A final immobilization level of approximately 1,500–2,000 response units was obtained for peptide samples. For the PGT121-K149 fusion protein and K149 knob domain, the same immobilisation protocols were used but with a 750 ng/mL solution of C5, instead of 1 μg/mL.
One-micromolar stock solutions of the analytes (PGT121 knob domain fusion proteins and free knob domain peptides) were prepared in HBS-EP buffer. A series of six 3-fold dilutions of each stock solution was prepared in the same buffer. The result was 7 solutions for each analyte, at concentrations ranging from 1 μM down to 1.37 nM. A high flow rate of 40 μL/min was used, with a contact time of 230 s and a dissociation time of 1,800 s for knob domain peptides and 10,000 s for PGT121 knob domain fusion proteins. For the PGT121-K149 fusion protein and K149 knob domain, the flow rate was further increased to 100 μL/min. Binding to the reference surface was subtracted, and the data were fitted to a single-site binding model using Biacore evaluation software. Data were inspected for evidence of mass transport limitation using the flow-rate–independent component of the mass transfer constant (tc).

Chain of Complement component C5 (P01031 19-673 limits assumed): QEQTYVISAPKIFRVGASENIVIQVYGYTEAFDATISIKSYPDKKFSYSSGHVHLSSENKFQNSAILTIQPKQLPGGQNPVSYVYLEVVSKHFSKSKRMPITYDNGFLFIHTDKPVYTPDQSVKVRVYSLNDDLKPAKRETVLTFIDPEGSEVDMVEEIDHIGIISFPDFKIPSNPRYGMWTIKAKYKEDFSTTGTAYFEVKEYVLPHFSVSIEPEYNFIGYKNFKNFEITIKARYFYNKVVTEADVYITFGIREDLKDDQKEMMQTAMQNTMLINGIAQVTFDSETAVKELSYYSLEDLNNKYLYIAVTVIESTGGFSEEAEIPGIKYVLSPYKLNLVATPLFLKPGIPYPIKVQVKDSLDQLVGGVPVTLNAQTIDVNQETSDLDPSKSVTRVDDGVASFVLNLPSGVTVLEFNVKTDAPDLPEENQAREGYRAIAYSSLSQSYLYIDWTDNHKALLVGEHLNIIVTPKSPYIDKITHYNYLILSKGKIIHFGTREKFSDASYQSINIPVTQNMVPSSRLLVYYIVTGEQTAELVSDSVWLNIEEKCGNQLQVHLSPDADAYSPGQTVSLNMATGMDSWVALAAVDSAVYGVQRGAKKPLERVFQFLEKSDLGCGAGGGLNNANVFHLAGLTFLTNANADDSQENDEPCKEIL
Chain of Complement component C5 (P01031 678-1676 limits assumed): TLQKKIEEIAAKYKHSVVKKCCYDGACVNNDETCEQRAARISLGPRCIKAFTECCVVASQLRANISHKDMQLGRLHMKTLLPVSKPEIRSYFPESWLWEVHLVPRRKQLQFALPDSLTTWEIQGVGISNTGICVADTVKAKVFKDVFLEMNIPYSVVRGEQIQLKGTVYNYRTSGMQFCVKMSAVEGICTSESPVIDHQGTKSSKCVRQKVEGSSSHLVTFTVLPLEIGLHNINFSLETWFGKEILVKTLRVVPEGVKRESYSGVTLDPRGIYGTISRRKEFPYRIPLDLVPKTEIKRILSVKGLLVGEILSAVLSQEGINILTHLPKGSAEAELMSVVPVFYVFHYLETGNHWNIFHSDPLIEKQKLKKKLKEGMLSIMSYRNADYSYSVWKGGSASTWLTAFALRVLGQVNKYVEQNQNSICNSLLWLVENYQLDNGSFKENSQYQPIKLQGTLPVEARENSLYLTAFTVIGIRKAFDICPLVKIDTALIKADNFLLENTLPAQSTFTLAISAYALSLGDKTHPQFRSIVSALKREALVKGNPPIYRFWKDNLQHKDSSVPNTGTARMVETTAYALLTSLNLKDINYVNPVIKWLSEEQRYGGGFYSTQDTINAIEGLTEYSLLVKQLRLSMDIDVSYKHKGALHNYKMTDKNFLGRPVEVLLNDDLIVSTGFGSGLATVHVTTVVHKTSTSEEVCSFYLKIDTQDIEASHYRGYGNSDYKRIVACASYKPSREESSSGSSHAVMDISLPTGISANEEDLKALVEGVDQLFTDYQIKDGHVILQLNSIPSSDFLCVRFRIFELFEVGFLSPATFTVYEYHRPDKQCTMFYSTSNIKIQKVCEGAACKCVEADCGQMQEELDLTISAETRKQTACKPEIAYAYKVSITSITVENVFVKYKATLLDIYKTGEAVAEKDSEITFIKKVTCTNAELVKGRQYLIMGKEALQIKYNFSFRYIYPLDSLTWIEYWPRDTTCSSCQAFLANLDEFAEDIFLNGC

**Q.** For “GKSCREGYIDGGGCCLPGSCRGCACSYYDWLKCPRDCRGTSEEENLYFQ (also: bicyclic or more (positions not given here)) [K60, isolated bovine knob domain peptide, TEV-excised from PGT121 Fab]”, which “mean KD” value (SPR single-cycle kinetics, 1:1 model, mean of 3 experiments (Fig 6)) is on record?
**A.** Its value is “not to bind; also recorded: Non-binding”.

**Q.** What about the “Mean Stoichiometric ratio at 1 µM” value (SPR, analyte 1 µM, mean of n=3 occasions) of the same sequence?
**A.** The value was <0.1.

**Q.** And the “Stoichiometric ratio at 1 µM” value (occasion n=1)?
**A.** The value was <0.1.

**Q.** What about the “Stoichiometric ratio at 1 µM” value (occasion n=2) of the same sequence?
**A.** Its value is <0.1.

**Q.** And the “Stoichiometric ratio at 1 µM” value (occasion n=3)?
**A.** Its value is <0.1.
